Here are results for five compounds from patent US20150141523A1, “COMPOUNDS FOR USE IN THE TREATMENT OF AUTOIMMUNE INFLAMMATORY DISEASE” (Venantius Limited, priority 2012, published 2015).

Data set [1] concerns IL-2 secretion from Jurkat T cells. As to the kind of experiment: IL-2 secretion from activated Jurkat T cells (ELISA). Format: cell-based, human. The settings on record: for IL-2 [ ]pg/ml (1) / IL-2 % Control (1): experiment (1); for IL-2 % Control (1) / IL-2 % Control (2) / IL-2 % Control (3): relative to DMSO 0.1%; for IL-2 [ ]pg/ml (2) / IL-2 % Control (2): experiment (2); for IL-2 [ ]pg/ml (3) / IL-2 % Control (3): experiment (3). Here is the method: The T cell line Jurkat 6.1 (ATCC) was used. Cells were pre-treated for 30 min with 1 μM or 10 μM of the respective compound and then stimulated with plate-bound anti-CD3 (BD Pharmingen) and anti-CD28 (AnCell). DMSO was used as vehicle control. The immunosuppressive agent Cyclosporine A was used as a control for inhibition of IL-2 production. After 24 hs the supernatant was collected and IL-2 secretion was measured by ELISA.
Jurkat T cells were cultured in RMPI-1640 medium containing 10 % Foetal Bovine Serum, Penicillin/Streptomycin and L-Glutamine in T-75cm2 flasks at 37° C. and 5 % CO2. Cells were seeded into new culture flasks at a density of 1-3×10^5 cells per ml and maintained at a density of 0.5−1×10^6 cells per ml.
(§1) (A) Anti-TCR/CD28-mediated activation of Jurkat cells: Experiments involving anti-TCR/CD28-mediated activation of Jurkat T lymphocytes were carried out on 24-well cell culture plates. The plates were coated with a 1/100 dilution of rabbit anti-mouse IgG in sterile PBS (1×) and incubated overnight at 4OC. Unbound antibody was aspirated and the wells were gently rinsed with warm sterile PBS. The PBS was aspirated and the wells were coated with a 1/100 dilution of anti-TCR antibody (OKT-3) and a 1/200 dilution of anti-CD28 antibody (both antibodies pre-mixed prior to addition to the plates) in sterile PBS. The plates were then incubated for 1-2 hours at 37° C. Unbound antibody was aspirated and the wells were gently rinsed with warm PBS. The PBS was left on the plate until the Jurkat cells were ready to be added to the plate. The Jurkat cells were harvested from the T-75cm2 cell culture flasks and resuspended at a density of 0.5×10^6 cells per ml. The compounds were dissolved at a specified stock concentration (see results section) and diluted to the required concentration by adding the drug to the cell suspension. The cells were then pre-incubated with the compounds or with an equivalent volume of drug vehicle control (DMSO) for 30 minutes prior to adding the cell suspension to the antibody-coated plates. Cyclosporine A (1 μM) was used as a positive control to inhibit IL-2 production from activated T cells and was preincubated with the 6 cells as described above in parallel. The cells were then incubated on the plates with the acti-TCR/CD28 antibodies for 24 hours at 37° C. and 5% CO2 in a humidified atmosphere. After 24 hours, the cell suspension was removed from the plates and the cells were pelleted by centrifugation. The cell culture supernatant was saved and analysed for secreted IL-2 by ELISA. The cell pellet was saved and cell viability was measured using Acridine Orange/Ethidium Bromide cell viability staining solution.
(B) PHA/PMA-mediated activation of Jurkat cells Jurkat cells were resuspended at a concentration of 0.5×10^6 cells per ml and the Pharmatrin compounds at the desired concentration or an equivalent volume of drug vehicle control (DMSO) were added to the cells and incubated for 30 minutes. Cyclosporine A (1 ∝M) was used as a positive control to inhibit IL-2 production from activated T cells and was preincubated with the cells as described above in parallel. PHA and PMA were added to the cell suspension (10 ∝g/ml and 10 ng/ml respectively) and the cells were plated onto uncoated 24-well plates. The cells were incubated on the plates for 24 hours at 37° C. and 5 % CO2 in a humidified atmosphere. After 24 hours, the cell suspension was removed from the plates and the cells were pelleted by centrifugation. The cell culture supernatant was saved and analysed for secreted IL-2 by ELISA.
The cell culture supernatants were analysed for IL-2 by ELISA (96-well plate format) using the Human IL-2 ELISA kit from R&D Systems Europe. This assay was carried out using the standard protocol outlined by the company. Samples and standards (recombinant human IL-2 provided by R&D Systems) were analysed in triplicate. […]
For orientation: ELISA stands for enzyme-linked immunosorbent assay.

The test system of data set [2] is Jurkat cells. As to the kind of experiment: Jurkat cell viability (Acridine Orange/Ethidium Bromide). Format: cell-based. Here is the method:
as §1
The cell pellet was resuspended in 20 μl of Acridine Orange/Ethidium Bromide staining solution. A portion of this cell suspension was placed on a haemocytometer and analysed under a fluorescence microscope. […] The ratio of viable cells: non-viable cells were calculated for each activation time point/drug treatment.

The test system of data set [3] is BalbC mice. As to the kind of experiment: Arachidonic acid mouse ear oedema model. The data set is classed as in vivo. The note with it: 300 μg/ear in acetone, topical; arachidonic acid alone 86%. Here is the method: The arrachidonic mouse ear oedema model is an acute inflammation model based on activation of ecosanoid pathways. The mouse ear oedema model was performed using BalbC mice (25-35 g), of either sex. The ear was treated by the topical application (10 μl) of solvent (acetone 100%) or test drug (300 μg/ear in acetone) or Indomethacin (300 μg/ear in acetone). After one hour, oedema was induced by the topical application of arachidonic acid (10 μl at 0.4 g/ml in acetone). The width of each ear was measured, both before and 60 min after the induction of oedema, using a micrometer screw gauge. Ear oedema was calculated by comparing the ear width before and after induction of oedema and expressed as percentage normal. Animals were killed using CO2, without recovering from sedation.

Data set [4] deals with β-hexosaminidase release from RBL-2H3 cells. The settings on record: cited from earlier work.
[5] abbreviates: RBL-2H3 cells, Inflamm. Res. 57 (2008).

Where two headings read alike, the source gives them in different places.

For “(R,S or SR)2-Benzyl-2,3-dihydro-1H,1′H-2,2′-biinden-1-ol [Compound 8]”, in data set [1], the “IL2 release from Jurkat cells” value is given as “inhibited IL2 release”. Besides, the “IL-2 [ ]pg/ml (1)” value in data set [1] (0.3 uM) is 44.20 pg/mL; in data set [1] (1 uM), 37.95 pg/mL; in data set [1] (3 uM), 34.45 pg/mL; in data set [1] (10 uM), 20.15 pg/mL; in data set [1] (30 uM), -2.80 pg/mL; in data set [1] (100 uM), -12.55 pg/mL. Moreover, the “IL-2 % Control (1)” value in data set [1] (0.3 uM) is reported as 216.67%; in data set [1] (1 uM), 186.03%; in data set [1] (3 uM), 168.87%; in data set [1] (10 uM), 98.77%; in data set [1] (30 uM), −13.73%; in data set [1] (100 uM), −61.52%. In addition, the “IL-2 [ ]pg/ml (2)” value in data set [1] (0.3 uM) is 50.10 pg/mL; in data set [1] (1 uM), 39.65 pg/mL; in data set [1] (3 uM), 36.00 pg/mL; in data set [1] (10 uM), 25.65 pg/mL; in data set [1] (30 uM) it was -3.00 pg/mL; in data set [1] (100 uM), -12.80 pg/mL. For the same compound, the “IL-2 % Control (2)” value was 245.59% in data set [1] (0.3 uM); 194.36% in data set [1] (1 uM); 176.47% in data set [1] (3 uM); 125.74% in data set [1] (10 uM); −14.71% in data set [1] (30 uM); −62.75% in data set [1] (100 uM). Further, the “IL-2 [ ]pg/ml (3)” value was 107.03 pg/mL in data set [1] (0.3 uM); 111.75 pg/mL in data set [1] (1 uM); 102.92 pg/mL in data set [1] (3 uM); 81.78 pg/mL in data set [1] (10 uM); 76.25 pg/mL in data set [1] (30 uM); 8.11 pg/mL in data set [1] (100 uM). Also, the “IL-2 % Control (3)” value in data set [1] (0.3 uM) is reported as 77.39%; in data set [1] (1 uM), 80.81%; in data set [1] (3 uM) it was 74.42%; in data set [1] (10 uM) it was 59.13%; in data set [1] (30 uM), 55.14%; in data set [1] (100 uM), 5.87%. Besides, the cell viability entry in data set [2] is on record as “without affecting cell viability”.
For the compound “(R,S or SR)2-Benzyl-2,3-dihydro-1H,1′H-2,2′-biinden-1-ol [Compound 7]”, the “IL2 release from Jurkat cells” value in data set [1] is recorded as “inhibited IL2 release”. For the same compound, in data set [1] (0.3 uM), the “IL-2 [ ]pg/ml (1)” value was determined as 44.65 pg/mL, the “IL-2 % Control (1)” value turned out to be 218.87%, the “IL-2 [ ]pg/ml (2)” value turned out to be 93.65 pg/mL and the “IL-2 % Control (2)” value was determined as 143.42%. Besides, in data set [1] (0.3 uM), the “IL-2 [ ]pg/ml (3)” value was 112.94 pg/mL and the “IL-2 % Control (3)” value was 85.85%. Also, in data set [1] (1 uM), the “IL-2 [ ]pg/ml (1)” value turned out to be 49.20 pg/mL, the “IL-2 % Control (1)” value is reported as 241.18%, the “IL-2 [ ]pg/ml (2)” value was 71.40 pg/mL and the “IL-2 % Control (2)” value came out at 109.34%. Besides, in data set [1] (1 uM), the “IL-2 [ ]pg/ml (3)” value is 109.59 pg/mL and the “IL-2 % Control (3)” value was found to be 83.31%. For the same compound, in data set [1] (3 uM), the “IL-2 [ ]pg/ml (1)” value came out at 43.25 pg/mL, the “IL-2 % Control (1)” value is on record as 212.01%, the “IL-2 [ ]pg/ml (2)” value stood at 45.10 pg/mL and the “IL-2 % Control (2)” value came to 69.07%. In data set [1] (3 uM), the “IL-2 [ ]pg/ml (3)” value is 97.25 pg/mL and the “IL-2 % Control (3)” value worked out at 73.92%. In data set [1] (10 uM), the “IL-2 [ ]pg/ml (1)” value was determined as 24.75 pg/mL, the “IL-2 % Control (1)” value was determined as 121.32%, the “IL-2 [ ]pg/ml (2)” value was found to be 36.75 pg/mL and the “IL-2 % Control (2)” value came out at 56.28%. Also, in data set [1] (10 uM), the “IL-2 [ ]pg/ml (3)” value was determined as 81.84 pg/mL and the “IL-2 % Control (3)” value is reported as 62.21%. Further, in data set [1] (30 uM), the “IL-2 [ ]pg/ml (1)” value was found to be 10.10 pg/mL, the “IL-2 % Control (1)” value was found to be 49.51%, the “IL-2 [ ]pg/ml (2)” value came to 27.80 pg/mL and the “IL-2 % Control (2)” value was 42.57%. In addition, in data set [1] (30 uM), the “IL-2 [ ]pg/ml (3)” value amounted to 32.00 pg/mL and the “IL-2 % Control (3)” value was found to be 24.32%. Further, in data set [1] (100 uM), the “IL-2 [ ]pg/ml (1)” value is 1.15 pg/mL, the “IL-2 % Control (1)” value was 5.64%, the “IL-2 [ ]pg/ml (2)” value was -19.30 pg/mL and the “IL-2 % Control (2)” value is reported as −29.56%. In data set [1] (100 uM), the “IL-2 [ ]pg/ml (3)” value was -3.13 pg/mL and the “IL-2 % Control (3)” value is reported as −2.38%. For the same compound, the cell viability result in data set [2] is recorded as “without affecting cell viability”.
With `COc1ccc2c(c1)c(CC(=O)O)c(C)n2C(=O)c1ccc(Cl)cc1` [Indomethacin, reference compound], the “ear swelling (increase in ear thickness)” value in data set [3] worked out at 40%.
Consider `O[C@@H]1c2ccccc2C[C@]1(Cc1ccccc1)C1=Cc2ccccc2C1` (racemic) [Compound 5, (R,S and SR)2-Benzyl-2,3-dihydro-1H,1′H-2,2′-biinden-1-ol], for which the “inhibition of β-hexosaminidase release” value in data set [4] (setting [5]) is “dose dependent inhibition”.
Regarding “(S,S and RR)2-Benzyl-2,3-dihydro-1H,1′H-2,2′-biinden-1-ol [Compound 6]”, the “inhibition of β-hexosaminidase release” value in data set [4] (RBL-2H3 cells stimulated by calcium ionophore A23187, Bioorg. Med. Chem. Lett. 19(20), 2009) was “dose-dependant inhibition”; in data set [4] (setting [5]) it was “dose dependent inhibition”.
